# What was measured:
# SRPK1 = SRPK1 (Homo sapiens, UniProt Q96SB4); experiment: In vitro SRPK1 assay (Kinase-Glo); format: biochemical
# CYP1A2 = molecular target: T1, CYP1A2 (Homo sapiens, UniProt P05177); experiment: CYP inhibition assay, human liver microsomes, substrate tacrine; format: in vitro ADME; conditions: human liver microsomes, 10 min incubation, LC-MS/MS; read-out: CYP Inhibition Activity (IC50/nM) CYP1A2
# T1 construct: from tissue; host or cells: human liver microsomes
# T1 sequence (P05177 1-516): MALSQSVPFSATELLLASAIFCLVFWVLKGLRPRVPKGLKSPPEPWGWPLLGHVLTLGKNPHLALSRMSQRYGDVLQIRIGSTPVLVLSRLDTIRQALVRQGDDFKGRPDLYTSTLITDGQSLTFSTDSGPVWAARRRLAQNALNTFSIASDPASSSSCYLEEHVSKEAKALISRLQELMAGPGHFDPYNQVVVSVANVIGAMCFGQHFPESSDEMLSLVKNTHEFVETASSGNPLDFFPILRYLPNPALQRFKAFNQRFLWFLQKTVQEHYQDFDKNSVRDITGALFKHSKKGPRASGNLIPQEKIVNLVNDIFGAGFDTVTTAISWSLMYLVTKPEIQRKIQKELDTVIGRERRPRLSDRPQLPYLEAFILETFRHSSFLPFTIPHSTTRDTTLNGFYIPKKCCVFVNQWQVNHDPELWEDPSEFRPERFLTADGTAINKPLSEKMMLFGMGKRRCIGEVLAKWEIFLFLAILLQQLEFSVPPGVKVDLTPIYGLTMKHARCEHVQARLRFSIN
# How it was run: (§1)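 Human liver microsomes with pooled substrates, test compound or positive inhibitor pre-incubated 20 min at 37° C, then NADPH-started reaction for 10 min at 37° C. Stopped with cold acetonitrile; metabolites quantified by LC-MS/MS, giving % inhibition and IC50.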
# CYP2C9 = molecular target: T2, CYP2C9 (Homo sapiens, UniProt P11712); experiment: CYP inhibition assay, human liver microsomes, substrate diclofenac; format: in vitro ADME; conditions: human liver microsomes, 10 min incubation, LC-MS/MS; read-out: CYP Inhibition Activity (IC50/nM) CYP2C9
# T2 construct: from tissue; host or cells: human liver microsomes
# How it was run: as §1
# CYP2C19 = molecular target: T3, CYP2C19 (Homo sapiens, UniProt P33261); experiment: CYP inhibition assay, human liver microsomes, substrate S-mephenytoin; format: in vitro ADME; conditions: human liver microsomes, 10 min incubation, LC-MS/MS; read-out: CYP Inhibition Activity (IC50/nM) CYP2C19
# T3 construct: from tissue; host or cells: human liver microsomes
# How it was run: as §1
# CYP2D6 = molecular target: T4, CYP2D6 (Homo sapiens, UniProt P10635); experiment: biochemical; format: in vitro ADME
# T4 construct: from tissue; host or cells: human liver microsomes
# How it was run: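 Human liver microsomes (0.253 mg/mL working stock) pre-incubated with compound and substrate pool at 37° C for 20 min. Reaction started with NADPH and run 10 min at 37° C, stopped with cold ACN. Metabolite analysed by LC-MS/MS; % inhibition and IC50 calculated versus inhibitor-free control.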
# CYP3A4 = molecular target: T5, CYP3A4 (Homo sapiens, UniProt P08684); experiment: CYP inhibition assay, human liver microsomes, substrate midazolam; format: in vitro ADME; conditions: human liver microsomes, 10 min incubation, LC-MS/MS; read-out: CYP Inhibition Activity (IC50/nM) CYP3A4
# T5 construct: from tissue; host or cells: human liver microsomes
# How it was run: as §1
# T5 sequence (P08684 whole entry): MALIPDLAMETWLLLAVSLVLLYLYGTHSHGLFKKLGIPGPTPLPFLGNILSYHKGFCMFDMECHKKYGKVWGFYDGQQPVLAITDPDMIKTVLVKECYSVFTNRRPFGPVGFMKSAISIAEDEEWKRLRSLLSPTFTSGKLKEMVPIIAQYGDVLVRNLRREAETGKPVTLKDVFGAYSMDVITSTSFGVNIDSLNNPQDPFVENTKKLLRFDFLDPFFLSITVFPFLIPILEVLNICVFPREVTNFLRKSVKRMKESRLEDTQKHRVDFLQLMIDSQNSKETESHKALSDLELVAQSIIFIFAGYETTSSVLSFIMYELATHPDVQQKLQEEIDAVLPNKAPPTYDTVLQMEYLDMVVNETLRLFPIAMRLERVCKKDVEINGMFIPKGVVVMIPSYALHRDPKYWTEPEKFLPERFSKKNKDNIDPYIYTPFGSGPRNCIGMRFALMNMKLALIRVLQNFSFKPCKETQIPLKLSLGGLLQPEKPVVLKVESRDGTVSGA
# Chain of SRPK1 (Q96SB4 whole entry, species assumed): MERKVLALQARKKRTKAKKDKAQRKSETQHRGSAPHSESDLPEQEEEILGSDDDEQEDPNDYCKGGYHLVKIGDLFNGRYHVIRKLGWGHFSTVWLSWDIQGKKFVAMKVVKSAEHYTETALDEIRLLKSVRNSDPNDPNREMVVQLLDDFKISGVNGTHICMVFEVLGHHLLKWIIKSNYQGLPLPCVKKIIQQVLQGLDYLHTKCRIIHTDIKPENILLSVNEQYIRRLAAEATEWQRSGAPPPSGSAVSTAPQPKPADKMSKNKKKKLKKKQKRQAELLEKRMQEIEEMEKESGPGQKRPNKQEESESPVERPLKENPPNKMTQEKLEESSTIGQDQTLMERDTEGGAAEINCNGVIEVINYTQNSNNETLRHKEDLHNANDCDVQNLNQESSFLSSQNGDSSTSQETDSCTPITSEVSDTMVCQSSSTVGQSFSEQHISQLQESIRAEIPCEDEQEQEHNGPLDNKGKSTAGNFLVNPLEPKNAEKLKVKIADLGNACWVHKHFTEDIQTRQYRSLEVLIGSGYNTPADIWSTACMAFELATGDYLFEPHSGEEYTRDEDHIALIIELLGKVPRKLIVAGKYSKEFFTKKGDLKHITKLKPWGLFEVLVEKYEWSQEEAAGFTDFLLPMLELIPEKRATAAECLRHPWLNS
# T4 sequence (P10635 whole entry): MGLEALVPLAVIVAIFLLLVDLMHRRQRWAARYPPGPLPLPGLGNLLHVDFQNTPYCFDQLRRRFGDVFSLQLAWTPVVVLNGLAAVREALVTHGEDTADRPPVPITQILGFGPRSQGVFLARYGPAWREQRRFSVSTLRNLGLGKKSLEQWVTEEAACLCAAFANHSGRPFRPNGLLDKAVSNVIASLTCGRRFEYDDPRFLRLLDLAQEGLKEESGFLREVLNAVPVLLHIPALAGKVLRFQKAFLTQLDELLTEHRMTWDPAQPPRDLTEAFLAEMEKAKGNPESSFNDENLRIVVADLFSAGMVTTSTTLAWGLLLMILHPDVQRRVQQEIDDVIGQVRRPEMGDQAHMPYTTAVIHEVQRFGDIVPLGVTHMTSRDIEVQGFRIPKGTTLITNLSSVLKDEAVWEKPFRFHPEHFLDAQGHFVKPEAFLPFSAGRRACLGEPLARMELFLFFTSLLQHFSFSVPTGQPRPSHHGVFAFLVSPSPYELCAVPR
# T3 sequence (P33261 whole entry): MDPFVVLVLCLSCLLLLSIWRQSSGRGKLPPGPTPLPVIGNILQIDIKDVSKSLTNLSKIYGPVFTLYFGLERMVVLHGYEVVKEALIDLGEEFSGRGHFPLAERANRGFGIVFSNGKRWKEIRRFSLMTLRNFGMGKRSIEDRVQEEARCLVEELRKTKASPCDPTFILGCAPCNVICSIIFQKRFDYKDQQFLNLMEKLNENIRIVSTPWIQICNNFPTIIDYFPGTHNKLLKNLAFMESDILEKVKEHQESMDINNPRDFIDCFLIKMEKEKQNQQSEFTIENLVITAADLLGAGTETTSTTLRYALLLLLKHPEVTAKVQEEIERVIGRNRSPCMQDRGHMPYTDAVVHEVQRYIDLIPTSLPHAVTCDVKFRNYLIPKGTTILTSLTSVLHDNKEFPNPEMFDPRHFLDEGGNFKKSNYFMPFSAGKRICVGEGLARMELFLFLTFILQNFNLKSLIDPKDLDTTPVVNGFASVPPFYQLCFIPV
# T2 sequence (P11712 whole entry): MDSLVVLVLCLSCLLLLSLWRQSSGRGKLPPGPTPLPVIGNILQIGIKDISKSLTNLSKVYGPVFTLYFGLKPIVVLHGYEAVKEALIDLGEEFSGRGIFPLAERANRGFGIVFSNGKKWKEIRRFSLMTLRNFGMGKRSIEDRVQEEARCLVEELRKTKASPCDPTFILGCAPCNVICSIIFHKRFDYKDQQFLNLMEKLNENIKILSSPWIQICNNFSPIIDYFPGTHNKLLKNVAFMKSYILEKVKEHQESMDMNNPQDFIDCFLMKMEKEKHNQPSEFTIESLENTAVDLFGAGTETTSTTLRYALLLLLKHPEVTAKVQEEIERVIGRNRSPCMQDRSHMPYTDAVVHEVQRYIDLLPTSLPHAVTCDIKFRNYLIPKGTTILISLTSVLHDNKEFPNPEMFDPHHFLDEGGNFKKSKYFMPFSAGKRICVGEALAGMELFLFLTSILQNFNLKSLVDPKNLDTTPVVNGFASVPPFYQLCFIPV
Structure (SMILES),IC50 (SRPK1) [nM],IC50 (CYP1A2) [nM],IC50 (CYP2C9) [nM],IC50 (CYP2C19) [nM],IC50 (CYP2D6) [µM],IC50 (CYP3A4) [nM]
"CC1(C(N)=O)CCN(c2ccc(C(F)(F)F)cc2NC(=O)c2ccc(-c3ccncc3)o2)CC1 [Example 72, 4-methyl-1-(2-(5-(pyridin-4-yl)furan-2-carboxamido)-4-(trifluoromethyl)phenyl)-piperidine-4-carboxamide]",1.9,> 30000,2360,7540,4.13,2370
"CC1(C(=O)O)CCN(c2ccc(C(F)(F)F)cc2NC(=O)c2ccc(C3CCOCC3)o2)CC1 [Example 27, 4-methyl-1-(2-(5-(tetrahydro-2H-pyran-4-yl)furan-2-carboxamido)-4-(trifluoromethyl)phenyl)-piperidine-4-carboxylic acid]",3.6,> 30000,12600,> 30000,> 30,> 30000
"O=C(Nc1cc(C(F)(F)F)ccc1N1CCC(O)CC1)c1ccc(C2CCOCC2)o1 [Example 33, N-(2-(4-hydroxypiperidin-1-yl)-5-(trifluoromethyl)-phenyl)-5-(tetrahydro-2H-pyran-4-yl)furan-2-carboxamide]",0.9,10000,7600,8100,15.2,> 30000
"Cc1ccc(N2CCC(C)(O)C2)c(NC(=O)c2ccc(C3CCOCC3)o2)c1 (racemic) [Example 58, N-(2-(3-hydroxy-3-methylpyrrolidin-1-yl)-5-methylphenyl)-5-(tetrahydro-2H-pyran-4-yl)-furan-2-carboxamide]",204,> 30000,> 30000,> 30000,> 30,23200
O=C(Nc1cc(C(F)(F)F)ccc1N1CCC(O)(Cc2ccccc2)CC1)c1ccc(C2CCOCC2)o1 [Example 19],39,15300,12700,12300,> 30,18800
"CC1(CN2CCCC2)CCN(c2ccc(C(F)(F)F)cc2NC(=O)c2ccc(C3CCOCC3)o2)CC1 [Example 95, N-(2-(4-methyl-4-(pyrrolidin-1-ylmethyl)piperidin-1-yl)-5-(trifluoromethyl)phenyl)-5-(tetrahydro-2H-pyran-4-yl)furan-2-carboxamide]",24,> 30000,10100,> 30000,0.4,7300
"O=C(Nc1cc(Cl)ccc1N1CCCC(O)CC1)c1ccc(C2CCOCC2)o1 (racemic) [Example 48, N-(5-chloro-2-(4-hydroxyazepan-1-yl)phenyl)-5-(tetrahydro-2H-pyran-4-yl)furan-2-carboxamide]",15,16800,10300,6000,15.7,21100

# Results, then the molecule that gave them:
IC50 (SRPK1) [nM],IC50 (CYP1A2) [nM],IC50 (CYP2C9) [nM],IC50 (CYP2C19) [nM],IC50 (CYP2D6) [µM],IC50 (CYP3A4) [nM],Structure (SMILES)
42,> 30000,7640,7340,1.04,3540,"CN(C)CC1(C)CCN(c2ccc(C(F)(F)F)cc2NC(=O)c2ccc(-c3ccncc3)o2)CC1 [Example 80, N-(2-(4-((dimethylamino)methyl)-4-methyl-piperidin-1-yl)-5-(trifluoromethyl)phenyl)-5-(pyridin-4-yl)furan-2-carboxamide]"
35,> 30000,6350,6140,7.14,20900,"CC1(O)CCN(c2ccc(C(F)(F)F)cc2NC(=O)c2ccc(C3CCOCC3)o2)C1 (racemic) [Example 54, N-(2-(3-hydroxy-3-methylpyrrolidin-1-yl)-5-(trifluoromethyl)-phenyl)-5-(tetrahydro-2H-pyran-4-yl)furan-2-carboxamide]"
5.2,7340,7250,6730,21.2,17200,"O=C(Nc1cc(C2CC2)ccc1N1CCCC(O)CC1)c1ccc(C2CCOCC2)o1 (racemic) [Example 49, N-(5-cyclopropyl-2-(4-hydroxyazepan-1-yl)phenyl)-5-(tetrahydro-2H-pyran-4-yl)furan-2-carboxamide]"
6,> 30000,> 30000,> 30000,> 30,> 30000,"CC1(C)CCN(c2ccc(C(F)(F)F)cc2NC(=O)c2ccc(C3CCOCC3)o2)CC1 [Example 29, N-(2-(4,4-dimethylpiperidin-1-yl)-5-(trifluoromethyl)phenyl)-5-(tetrahydro-2H-pyran-4-yl)furan-2-carboxamide]"
13,> 30000,610,530,16.6,10300,"CC1(O)CCCN(c2ccc(C3CC3)cc2NC(=O)c2ccc(C3CCOCC3)o2)CC1 (racemic) [Example 42, N-(5-cyclopropyl-2-(4-hydroxy-4-methylazepan-1-yl)phenyl)-5-(tetrahydro-2H-pyran-4-yl)furan-2-carboxamide]"
15.1,> 30000,> 30000,> 30000,4.8,> 30000,"CC1(N)CCN(c2ccc(C(F)(F)F)cc2NC(=O)c2ccc(C3CCOCC3)o2)CC1 [Example 101, N-(2-(4-amino-4-methylpiperidin-1-yl)-5-(trifluoromethyl)-phenyl)-5-(tetrahydro-2H-pyran-4-yl)furan-2-carboxamide]"
101,960,140,130,0.04,2420,"O=C(Nc1cc(C(F)(F)F)ccc1N1CCC(O)C1)c1ccc(-c2ccncc2)o1 (racemic) [Example 56, N-(2-(3-hydroxypyrrolidin-1-yl)-5-(trifluoromethyl)-phenyl)-5-(pyridin-4-yl)furan-2-carboxamide]"
14,> 30000,2500,14100,18.9,2800,"CC1(C(=O)N2CCCCC2)CCN(c2ccc(C(F)(F)F)cc2NC(=O)c2ccc(C3CCOCC3)o2)CC1 [Example 89, N-(2-(4-methyl-4-(piperidine-1-carbonyl)-piperidin-1-yl)-5-(trifluoromethyl)phenyl)-5-(tetrahydro-2H-pyran-4-yl)furan-2-carboxamide]"
4,21700,7670,7500,15.4,10000,"CC1(O)CCCN(c2ccc(Cl)cc2NC(=O)c2ccc(-c3ccncc3)o2)CC1 (racemic) [Example 38, N-(5-chloro-2-(4-hydroxy-4-methylazepan-1-yl)phenyl)-5-(pyridin-4-yl)furan-2-carboxamide]"
41,> 30000,14900,20800,0.2,19000,"CN(C)CC1(C)CCN(c2ccc(Cl)cc2NC(=O)c2ccc(C3CCOCC3)o2)CC1 [Example 91, N-(5-chloro-2-(4-((dimethylamino)methyl)-4-methylpiperidin-1-yl)phenyl)-5-(tetrahydro-2H-pyran-4-yl)furan-2-carboxamide]"

# From patent US11420969B2 (Exonate Limited, priority 2017, dated 2022)
